Test results from PMC12064818, “A general assay platform to study protein pharmacology using ligand-dependent structural dynamics” (Nature Communications, 2025).
Read-outs that look alike come from different tables or passages of the source.

How the values were obtained:
[1] = target: PKA-N-HiBiT (Homo sapiens, UniProt P17612); assay: SDR assay, PKA-N-HiBiT; conditions: for SDR Ave Max Response: average maximal response
[2] = target: FLuc-N-HiBiT (firefly luciferase) (Photinus pyralis, UniProt P08659, form not given/L550V); assay: SDR assay, FLuc-N-HiBiT; conditions: ATP-independent pyrazolo pyrimidine (clade P)
[3] = target: T1, ABL1-N-HiBiT kinase domain (Homo sapiens, UniProt P00519); assay: SDR assay, ABL1-N-HiBiT; conditions: for SDR Ave Max Response: average maximal SDR response
T1 sequence (P00519 233-500): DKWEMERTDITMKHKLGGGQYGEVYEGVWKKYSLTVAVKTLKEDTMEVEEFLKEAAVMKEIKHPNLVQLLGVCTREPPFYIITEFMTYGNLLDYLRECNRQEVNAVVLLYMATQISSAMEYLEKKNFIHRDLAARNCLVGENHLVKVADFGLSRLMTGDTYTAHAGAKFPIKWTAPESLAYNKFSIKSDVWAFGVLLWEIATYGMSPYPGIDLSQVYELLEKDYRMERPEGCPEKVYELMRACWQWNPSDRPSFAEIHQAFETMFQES

[4] = system: PKA; conditions: annotation yes/no for kinase library compound; source not given; cited from earlier work
[5] = target: T2, FLuc-C-NLuc (firefly luciferase) (Photinus pyralis, UniProt P08659, form not given/L550V); assay: SDR assay, FLuc-C-NLuc; conditions: Log[Compound]; for SDR+ATP: 10 mM ATP; for SDR: absence of ATP
[6] = target: T2, FLuc-C-NLuc (firefly luciferase); assay: Firefly luciferase (FLuc) enzymatic luminescence assay, FLuc-C-NLuc; format: biochemical; design: key to Enz: % normalized; no enzyme control = 100% inhibition, DMSO = 0; conditions: Log[Compound]
Protocol: The enzyme activity of FLuc-N-HiBiT, FLuc-C-HiBiT, and FLuc-C-NLuc was measured similar to P. pyralis firefly luciferase (FLuc) as previously described. […] Compounds and controls were added to each plate as described in Supplementary Data 8 with a Hornet pintool system (Wako Automation). Compounds were incubated with respective enzymes for 30–60 min at room temperature protected from light and covered by solid metal lid to prevent evaporation. […] Luciferin was incubated with FLuc enzyme for 5 min before FLuc activity was then measured on a ViewLux CCD imager (PerkinElmer), with exposure times up to ten seconds with medium to high gain settings. Data were normalized to average no enzyme control as 100% enzyme inhibition and average DMSO neutral control. See Supplementary Table 4 for additional details.
Supplementary Table 4. Protocol for Firefly luciferase (FLuc) and NanoLuc (NLuc) enzymatic
Supplementary Table 4: Protocol for Firefly luciferase (FLuc) and NanoLuc (NLuc) enzym atic lum inescence assay
Firefly luciferase (FLuc) enzym atic lum inescence assay
Sequence Param eter Value Description
No enzym e control (colum n 1) and enzym e solution (1- 10 nM FLuc enzym e) in FLuc assay
1 Reagent 4 µLbuffer; white/solid bottom , m edium bind, high base plates (Greiner), dispensed with BioRaptr
com pounds transferred to respective colum ns with Pintool
2b Test Com pounds 23 nLconcentration range) in colum ns 5- 48; com pounds transferred to respective wells with
3 Incubation 30 m in Incubate enzym e + com pounds at am bient tem p for 30 m in, protected from light
4 Reagent 3 µLAdd 3 µL of D-luciferin substrate solution to each well (final concentration 10 µM); dispensed
5 Detector ViewLux Read plate lum inescence (Exposure = 1- 10 sec; Gain = Medium -high; Speed = Slow;
Dispensing solution was diluted in 1X PBS, pH 7.4. […]

[7] = heatmap data, 128 kinase inhibitors
[8] = read-out: SDR Ave SDR50, ABL1-N-HiBiT qHTS, average, unit inferred
[9] = read-out: PKA SDR Ave SDR50, PKA-N-HiBiT qHTS, SDR assay, average

T2 sequence (P08659 2-550 L550V, form open): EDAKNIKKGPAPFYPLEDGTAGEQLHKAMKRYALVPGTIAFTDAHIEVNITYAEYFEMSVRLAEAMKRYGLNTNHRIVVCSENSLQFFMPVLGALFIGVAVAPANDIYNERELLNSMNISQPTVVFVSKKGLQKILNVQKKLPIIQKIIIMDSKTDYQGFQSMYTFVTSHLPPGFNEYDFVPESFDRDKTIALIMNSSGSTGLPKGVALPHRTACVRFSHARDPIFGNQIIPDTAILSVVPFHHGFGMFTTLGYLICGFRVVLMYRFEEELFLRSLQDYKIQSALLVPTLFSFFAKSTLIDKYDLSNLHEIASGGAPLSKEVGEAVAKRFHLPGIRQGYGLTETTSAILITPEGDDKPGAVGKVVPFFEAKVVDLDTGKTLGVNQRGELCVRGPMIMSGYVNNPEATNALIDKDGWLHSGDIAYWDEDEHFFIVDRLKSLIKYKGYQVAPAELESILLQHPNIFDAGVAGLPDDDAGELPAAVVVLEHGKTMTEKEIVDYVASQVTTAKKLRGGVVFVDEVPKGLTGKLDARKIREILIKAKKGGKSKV
FLuc-N-HiBiT (firefly luciferase), sequence (P08659 2-550 L550V, form open): as above

O=c1cc(N2CCOCC2)nc2c3ccccc3ccn12 [Compound 401]
Emax ([1]; read-out: SDR Ave Max Response): 0.18% | pSDR50 (clade P) [2]: 4.78 | % Activity (max response) ([2]; SDR): 29.04% | EC50 ([3]; ABL1 SDR pSDR50, ABL1, SDR, heatmap data, 128 kinase inhibitors): 7.41 µM | EC50 ([3]; SDR Ave SDR50, ABL1-N-HiBiT qHTS, average, unit inferred): 7.6 µM | Emax ([3]; read-out: SDR Ave Max Response): 22.9% | Annotated PKA activity [4]: no

CC(NC(=O)C1CCN(C(=O)c2ncn3c2COC(c2ccc(F)cc2)C3)CC1)c1ccc(F)cc1 (centres unmarked) [NCGC00449825]
SDR+ATP ([5]; M -4.48): 5.00 | SDR ([5]; M -4.48): 0.68 | SDR+ATP ([5]; M -4.96): 3.92 | SDR ([5]; M -4.96): 1.78 | SDR+ATP ([5]; M -5.44): 2.46 | SDR ([5]; M -5.44): 4.05 | SDR+ATP ([5]; M -5.91): 1.09 | SDR ([5]; M -5.91): 3.40 | SDR+ATP ([5]; M -6.39): 1.15 | SDR ([5]; M -6.39): 4.21 | SDR+ATP ([5]; M -6.87): 0.36 | SDR ([5]; M -6.87): 3.25 | SDR+ATP ([5]; M -7.35): 2.57 | SDR ([5]; M -7.35): 4.32 | SDR+ATP ([5]; M -7.82): 1.95 | SDR ([5]; M -7.82): 4.76 | SDR+ATP ([5]; M -8.30): 0.0052 | SDR ([5]; M -8.30): 4.00 | SDR+ATP ([5]; M -8.78): 1.06 | SDR ([5]; M -8.78): 4.68 | SDR+ATP ([5]; M -9.25): -0.91 | SDR ([5]; M -9.25): 3.86 | Enz ([6]; M -4.48): -1.94 | Enz ([6]; M -4.96): 0.62 | Enz ([6]; M -5.44): 4.13 | Enz ([6]; M -5.91): 4.09 | Enz ([6]; M -6.39): 3.17 | Enz ([6]; M -6.87): 4.88 | Enz ([6]; M -7.35): 4.82 | Enz ([6]; M -7.82): 4.76 | Enz ([6]; M -8.30): 4.19 | Enz ([6]; M -8.78): 1.93 | Enz ([6]; M -9.25): -2.04

O=C(Nc1ccc(OC(F)(F)F)cc1)c1sccc1NCc1ccnc2ccccc12 [OSI-930]
SDR Ave Max Response ([1]; PKA-N-HiBiT qHTS, SDR assay): 9.10 | ABL1 SDR pSDR50 [3, 7]: 5.04 | SDR Ave Max Response ([3]; ABL1-N-HiBiT qHTS): 17.46 | EC50 [3, 8]: 9.38 µM | Annotated PKA activity [4]: no

O=C(NOCC(O)CO)c1cc(Br)c(F)c(F)c1Nc1ccc(I)cc1F (centres unmarked) [PD-318088]
PKA SDR Ave pSDR50 ([1]; PKA-N-HiBiT qHTS, SDR assay, average): 4.33 | SDR Ave Max Response ([1]; PKA-N-HiBiT qHTS, SDR assay): -21.34 | EC50 [1, 9]: 62 µM | SDR Ave Max Response ([3]; ABL1-N-HiBiT qHTS): -2.26 | Annotated PKA activity [4]: no

N#Cc1cccc(-c2c[nH]c3ncnc(N4CCOCC4)c23)c1 [PF-06447475]
EC50 [1]: 19.5 µM | SDR Ave Max Response ([1]; PKA-N-HiBiT qHTS, SDR assay): 35.28 | EC50 [1, 9]: 20.8 µM | ABL1 SDR pSDR50 [3, 7]: 4.46 | SDR Ave Max Response ([3]; ABL1-N-HiBiT qHTS): 52.23 | EC50 [3, 8]: 35.5 µM | Annotated PKA activity [4]: no

Cc1ccc(NC(=O)N2CCN(c3nc(N)nc4sc(-c5cccnc5)nc34)CC2)cc1 [PI4KIII beta inhibitor 3]
SDR Ave Max Response ([1]; PKA-N-HiBiT qHTS, SDR assay): 3.67 | SDR Ave pSDR50 ([3]; ABL1-N-HiBiT qHTS, average): 4.83 | SDR Ave Max Response ([3]; ABL1-N-HiBiT qHTS): 18.89 | EC50 [3, 8]: 14.9 µM | Annotated PKA activity [4]: no

C=CC(=O)N1CCC(Oc2cc3c(Nc4ccc(Cl)c(Cl)c4F)ncnc3cc2OC)CC1 [Poziotinib]
SDR Ave Max Response ([1]; PKA-N-HiBiT qHTS, SDR assay): 8.47 | ABL1 SDR pSDR50 [3, 7]: 4.03 | SDR Ave Max Response ([3]; ABL1-N-HiBiT qHTS): 56.26 | Annotated PKA activity [4]: no

CO[C@H]1/C=C/O[C@@]2(C)Oc3c(C)c(O)c4c(O)c(c(/C=N\N5CCN(C6CCCC6)CC5)c(O)c4c3C2=O)NC(=O)C(C)=C/C=C/[C@H](C)[C@H](O)[C@@H](C)[C@@H](O)[C@@H](C)[C@H](OC(C)=O)[C@@H]1C [Rifapentin]
SDR Ave Max Response ([1]; PKA-N-HiBiT qHTS, SDR assay): -45.77 | EC50 [1, 9]: 17.1 µM | ABL1 SDR pSDR50 [3, 7]: 4.28 | SDR Ave Max Response ([3]; ABL1-N-HiBiT qHTS): -34.67 | Annotated PKA activity [4]: no

Cc1cc(F)ccc1-c1nc(NCCNC(=N)NC#N)nc2c1ccc(=O)n2-c1c(F)cccc1F [SB 706504]
SDR Ave Max Response ([1]; PKA-N-HiBiT qHTS, SDR assay): 3.70 | SDR Ave Max Response ([3]; ABL1-N-HiBiT qHTS): 3.05 | Annotated PKA activity [4]: no

COc1cc(NC(=O)c2cccc(-n3cc(NC(=O)Nc4cccc(C)c4)cn3)c2)cc(OC)c1OC [SR 3576]
SDR Ave Max Response ([1]; PKA-N-HiBiT qHTS, SDR assay): 1.20 | SDR Ave Max Response ([3]; ABL1-N-HiBiT qHTS): 6.18 | Annotated PKA activity [4]: no

O=C(Nc1cc(C(F)(F)F)ccc1N1CCCCC1)c1ccncc1 [SRPIN340]
SDR Ave Max Response ([1]; PKA-N-HiBiT qHTS, SDR assay): 1.60 | SDR Ave Max Response ([3]; ABL1-N-HiBiT qHTS): -4.31 | Annotated PKA activity [4]: no

N#Cc1ccc2ncnc(NCCc3ccccc3)c2c1 [Senexin A]
SDR Ave Max Response ([1]; PKA-N-HiBiT qHTS, SDR assay): -4.85 | SDR Ave Max Response ([3]; ABL1-N-HiBiT qHTS): -0.36 | Annotated PKA activity [4]: no
